These results are taken from patent US11779550B2, “Bisphenol ether derivatives and methods for using the same” (THE UNIVERSITY OF BRITISH COLUMBIA, priority 2015, dated 2023).

For the assay, the target named is T1, androgen receptor (AR) (Homo sapiens, UniProt P10275, T878A).
T1 construct: endogenous in cells; host or cells: LNCaP
T1 sequence (P10275 1-920 T878A): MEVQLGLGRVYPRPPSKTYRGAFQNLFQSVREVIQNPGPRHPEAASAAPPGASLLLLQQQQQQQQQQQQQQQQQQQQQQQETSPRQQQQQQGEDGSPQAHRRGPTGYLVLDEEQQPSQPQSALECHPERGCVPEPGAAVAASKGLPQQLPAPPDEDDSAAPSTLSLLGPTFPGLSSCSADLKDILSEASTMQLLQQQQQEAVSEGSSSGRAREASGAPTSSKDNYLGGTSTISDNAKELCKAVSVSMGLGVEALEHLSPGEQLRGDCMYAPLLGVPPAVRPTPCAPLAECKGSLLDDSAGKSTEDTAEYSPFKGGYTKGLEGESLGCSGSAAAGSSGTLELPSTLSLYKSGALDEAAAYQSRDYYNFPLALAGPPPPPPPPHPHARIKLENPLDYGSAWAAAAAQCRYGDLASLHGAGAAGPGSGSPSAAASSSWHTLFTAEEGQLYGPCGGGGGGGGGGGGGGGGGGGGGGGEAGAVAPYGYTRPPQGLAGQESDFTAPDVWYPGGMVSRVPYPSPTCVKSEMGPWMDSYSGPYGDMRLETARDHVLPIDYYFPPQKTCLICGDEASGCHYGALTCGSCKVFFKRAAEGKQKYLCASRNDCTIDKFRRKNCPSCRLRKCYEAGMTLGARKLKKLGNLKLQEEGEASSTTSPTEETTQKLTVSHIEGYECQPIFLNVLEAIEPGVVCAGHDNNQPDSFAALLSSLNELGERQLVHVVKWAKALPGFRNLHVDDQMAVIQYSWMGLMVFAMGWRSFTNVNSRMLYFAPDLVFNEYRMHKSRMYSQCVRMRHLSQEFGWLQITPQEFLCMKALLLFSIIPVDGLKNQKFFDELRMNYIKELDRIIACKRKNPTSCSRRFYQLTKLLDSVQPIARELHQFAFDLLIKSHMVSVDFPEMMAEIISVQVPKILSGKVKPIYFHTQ
The experiment in a line: PSA (6.1 kb)-luciferase reporter assay in LNCaP cells induced with R1881. In kind it is cell-based. Conditions: LNCaP cells transfected with PSA (6.1 kb)-luciferase, 1 h pre-treatment, R1881 (1 nM) 24 h. On the procedure:
LNCaP cells were transiently transfected with PSA (6.1 kb)-luciferase for 24 h prior to pre-treatment with compounds of the invention (e.g., Compound 1c) ranging in concentration from 62.5 ng/ml to 1.5 ug/ml for 1 hour before the addition of vehicle, or synthetic androgen, R1881 (1 nM) to induce luciferase production. After 24 h of incubation with R1881, the cells were harvested, and relative luciferase activities were determined. To determine the IC50, treatments were normalized to the predicted maximal activity induction (in the absence of test compounds, vehicle only).
Background: Reporter assays use an easily measured gene product as a stand-in for the process of interest.

Like-named read-outs stand apart in the source and are kept apart here.

Broadly, the IC50 is the concentration that gives 50% inhibition. As to `CC(C)(c1ccc(OC[C@H](O)CO)cc1)c1ccc(OC[C@@H](Cl)CO)cc1` [Compound 1c, (R)-3-(4-(2-(4-((S)-2-chloro-3-hydroxypropoxy)phenyl)propan-2-yl)phenoxy)propane-1,2-diol], the IC50 is, setting by setting: (Trial 1, read-out: IC50, Trial 1) 14 µM; (Trial 2, read-out: IC50, Trial 2) 19.4 µM; (Trial 3, read-out: IC50, Trial 3) 17 µM; (Trial 4, read-out: IC50, Trial 4) 15.8 µM; (average of trials, read-out: Average IC50) 16.7 ± 2.68 µM.
